According to PMC11243149, “Assessing the Effects of Thiazole-Carboxamide Derivatives on the Biophysical Properties of AMPA Receptor Complexes as a Potential Neuroprotective Agent” (Molecules, 2024):
Where two headings read alike, the source gives them in different places.

Columns and labels:
Assay type in all cases: cell-based
GluA2 = biological target: T1, GluA2 (Homo sapiens, UniProt P42262); experiment: Whole-cell patch-clamp recordings of homomeric GluA2 AMPAR in transfected HEK293T cells; conditions: for Amplitude (glutamate plus TC compound): 10 mM glutamate + TC compound (12 µM optimal concentration), HEK293T, -60 mV, pH 7.4, 22 °C, mean ± SEM; for Amplitude (glutamate plus TC compound) / Amplitude, applying glutamate alone after TC compound: n = 10; for Amplitude, applying glutamate alone after TC compound: 10 mM glutamate alone after 20 s wash following the TC compound; for t deact: weighted tau of deactivation, 10 mM glutamate for 1 ms, glutamate alone 2.3±0.1; for t deact / t des: with TC compound; for t des: weighted tau of desensitization, 10 mM glutamate 500 ms, glutamate alone 2.6±0.1
T1 construct: expressed in transfected cells; host or cells: HEK293T
T1 sequence (P42262 25-883 isoform P42262-2 limits assumed, species assumed): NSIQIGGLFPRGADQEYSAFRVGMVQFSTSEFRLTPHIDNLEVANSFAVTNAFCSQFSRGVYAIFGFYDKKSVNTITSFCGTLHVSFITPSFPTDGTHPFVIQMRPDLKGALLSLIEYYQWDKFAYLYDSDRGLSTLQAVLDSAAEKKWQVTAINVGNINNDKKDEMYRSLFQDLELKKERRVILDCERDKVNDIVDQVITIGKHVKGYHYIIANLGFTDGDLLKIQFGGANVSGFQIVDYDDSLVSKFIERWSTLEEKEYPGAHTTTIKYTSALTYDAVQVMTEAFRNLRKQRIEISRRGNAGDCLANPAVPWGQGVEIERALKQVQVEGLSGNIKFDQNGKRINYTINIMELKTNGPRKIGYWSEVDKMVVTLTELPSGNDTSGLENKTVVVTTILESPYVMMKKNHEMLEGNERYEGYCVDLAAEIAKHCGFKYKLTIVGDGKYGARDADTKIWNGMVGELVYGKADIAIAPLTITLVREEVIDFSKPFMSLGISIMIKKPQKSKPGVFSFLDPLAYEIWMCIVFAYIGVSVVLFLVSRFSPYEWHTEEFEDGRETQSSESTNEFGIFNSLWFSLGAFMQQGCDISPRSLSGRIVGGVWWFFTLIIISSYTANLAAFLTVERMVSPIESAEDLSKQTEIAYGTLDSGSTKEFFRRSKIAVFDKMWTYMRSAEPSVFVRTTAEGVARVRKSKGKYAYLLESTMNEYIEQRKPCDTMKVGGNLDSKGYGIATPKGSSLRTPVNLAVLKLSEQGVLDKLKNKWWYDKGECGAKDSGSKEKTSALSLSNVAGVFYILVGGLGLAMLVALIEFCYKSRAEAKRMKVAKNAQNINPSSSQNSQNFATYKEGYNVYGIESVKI
Protocol: (§1) The effect of five TC compounds on whole-cell currents of four AMPAR subunits (GluA1, GluA1/2, GluA2, and GluA2/3) was investigated using transfected HEK293T cells. Each compound was applied separately to each subunit, with experiments conducted on 8–10 cells per condition to ensure reproducibility. […] At a glutamate concentration of 10 mM and a 500 ms protocol, approximately 95% of AMPAR channels were open. The A/AI ratio was calculated to compare the results, where A represents normalized current readings and AI indicates the inhibited current following TC compound exposure. […] Following closely, TC-1 inhibited the tested subunits by 5-fold.
(§2) The IC50 values were examined using GraphPad Prism software 9.5.0.730 (x64) (Table S6), which confirmed these findings. The IC50 values of TC substances were calculated by standardizing the peak current amplitudes using data obtained from 8–10 cells. Following a 500 ms exposure to the compounds, the cells were rinsed with glutamate for 20 s. Next, a solution containing just glutamate at a concentration of 10 mM was administered, and the resulting immediate induced electrical current was measured and documented (Figure 3).
(§3) In addition, an evaluation was conducted on the deactivation rates (τw deact) of all the examined chemicals to investigate their impact on the kinetics of deactivation. The chemicals were assessed for their effect on the deactivation kinetics of AMPAR subunits by briefly administering 10 mM glutamate for 1 ms to begin currents. This experimental setup allowed for the observation of τw deact under controlled conditions. […] TC-5 induced an approximately 2-fold increase in τw deact across all four tested subunits. […] These findings highlight the differential impact of TC compounds on deactivation kinetics across AMPAR subunits, shedding light on their potential neuroprotective mechanisms.
(§4) The flip isoform was uniformly employed across all AMPAR subunits in this study. These subunits were subcloned into the pRK vector and expressed in Human Embryonic kidney cells sourced (Sigma, München, Germany). HEK293T cells were grown in Dulbecco Modified Eagle Medium (DMEM) (Sigma, München, Germany) containing 10% FBS (fetal bovine serum), 0.1 mg/mL streptomycin, and 1 mM sodium pyruvate (Biological Industries; Beit-Haemek, Israel). HEK293T cells were incubated at 37 °C and 5% CO2 was supplemented to the medium. It was subcultured twice a week until cells reached pass #20. The transfection reagent used was either jetPRIME (Polyplus: New York, NY, USA) or Lipofectamine 2000 (Invitrogen; San Diego, CA, USA). Cells were kept for 36 h. after transfection in 12-well plates. Then, they were replated on coverslips coated with Laminin (1 mg/mL; Sigma, Germany) for electrophysiology recordings. Cells were then seeded in Petri dishes in DMEM supplemented with 10% fetal calf serum and antibiotics and maintained in a humidified incubator at 37 °C and 5% CO2. Highly fluorescent cells were identified and selected for recording post-transfection.
(§5) HEK293T cells were recorded for 36–48 h, at a temperature of 22 °C, with a membrane potential of −60 mV. HEK293T cells were recorded 36–48 h after transfection using IPA (Integrated Patch Amplifier) via the […], at a temperature of 22 °C, with a membrane potential of −60 mV. SutterPatch Software v. 1.1.1 (Sutter Instruments, Novato, CA, USA) was used to digitize membrane currents for a short period. The sampling frequency was set to 10 kHz, and the low-pass filter was set to 2 kHz. Borosilicate glass was used to fabricate the patch electrodes with a resistance of 2–4 MΩ. The extracellular solution contained the following (values are in mM): 150 NaCl, 2.8 KCl, 0.5 MgCl2, 2 CaCl2, and 10 HEPES, adjusted to pH 7.4 with NaOH. The pipette solution contained the following (values are in mM): 110 CsF, 30 CsCl, 4 NaCl, 0.5 CaCl2, 10 […], and 10 HEPES, adjusted to pH 7.2 with CsOH. […]

GluA1/2 = biological target: T2, GluA1/2 (Homo sapiens, UniProt P42261+P42262); experiment: Whole-cell patch-clamp recordings of heteromeric GluA1/2 AMPAR in transfected HEK293T cells; conditions: for Amplitude (glutamate plus TC compound): 10 mM glutamate + TC compound (12 µM optimal concentration), HEK293T, -60 mV, pH 7.4, 22 °C, mean ± SEM; for Amplitude (glutamate plus TC compound) / Amplitude, applying glutamate alone after TC compound: n = 10; for Amplitude, applying glutamate alone after TC compound: 10 mM glutamate alone after 20 s wash following the TC compound; for A/AI: ratio of current with glutamate alone (A) to inhibited current after TC compound (AI); for t deact: weighted tau of deactivation, 10 mM glutamate for 1 ms, glutamate alone 2.5±0.3; for t deact / t des: with TC compound; for t des: weighted tau of desensitization, 10 mM glutamate 500 ms, glutamate alone 5.2±0.5
T2 construct: expressed in transfected cells; host or cells: HEK293T
T2 sequence (P42261 19-906 isoform P42261-2 limits assumed): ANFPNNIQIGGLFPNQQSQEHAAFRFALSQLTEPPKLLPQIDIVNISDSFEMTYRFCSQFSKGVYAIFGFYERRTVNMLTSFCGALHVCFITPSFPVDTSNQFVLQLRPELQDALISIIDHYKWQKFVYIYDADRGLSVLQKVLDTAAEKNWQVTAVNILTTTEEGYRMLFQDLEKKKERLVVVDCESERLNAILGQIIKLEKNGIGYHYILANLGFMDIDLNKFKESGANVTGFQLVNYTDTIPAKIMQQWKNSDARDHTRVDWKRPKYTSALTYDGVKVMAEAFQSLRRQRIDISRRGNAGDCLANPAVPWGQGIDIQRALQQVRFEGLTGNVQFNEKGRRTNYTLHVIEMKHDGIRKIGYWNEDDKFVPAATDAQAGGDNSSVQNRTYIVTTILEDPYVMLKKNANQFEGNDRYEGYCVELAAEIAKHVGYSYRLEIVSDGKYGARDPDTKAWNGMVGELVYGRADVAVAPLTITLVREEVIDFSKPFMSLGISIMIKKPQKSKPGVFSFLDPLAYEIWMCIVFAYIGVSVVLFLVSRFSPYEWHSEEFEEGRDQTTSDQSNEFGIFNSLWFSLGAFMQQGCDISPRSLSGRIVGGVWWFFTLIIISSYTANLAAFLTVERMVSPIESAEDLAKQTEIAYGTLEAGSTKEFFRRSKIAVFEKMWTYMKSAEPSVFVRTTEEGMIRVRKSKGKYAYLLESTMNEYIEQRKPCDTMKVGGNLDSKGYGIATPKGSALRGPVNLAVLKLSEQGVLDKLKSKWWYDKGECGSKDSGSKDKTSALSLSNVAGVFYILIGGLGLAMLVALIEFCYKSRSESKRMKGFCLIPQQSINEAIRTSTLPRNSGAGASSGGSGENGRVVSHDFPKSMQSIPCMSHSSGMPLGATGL
T2 sequence (P42262 25-883 isoform P42262-2 limits assumed): as the sequence (P42262 25-883 isoform P42262-2 limits assumed, species assumed) above
Protocol: as §1, §2, §3, §4, §5

[1] = system: AMPAR subunits (GluA1, GluA1/2, GluA2, and GluA2/3); experiment: Whole-cell patch-clamp recordings, statements over all tested AMPAR subunits; conditions: for reduction in τw des: across all examined subunits; for increase in τw deact / decrease in AMPAR subunit activity (inhibition of the whole-cell current): all tested subunits; for increase in τw deact: 10 mM glutamate for 1 ms; for decrease in AMPAR subunit activity (inhibition of the whole-cell current): 10 mM glutamate, 500 ms protocol
Protocol: as §1
A thorough investigation was performed to assess the neuroprotective potential of the TC compounds. The influence of the five TC compounds on the desensitization traces is seen in Figure 4, namely in panels b, d, f, and h. TC-2 caused a substantial reduction in τw des in all receptor subunits, with decreases ranging from 2 to 3 times.
as §3, §4
as §5, with “CsOH. Using double barrel glass (theta tube), glutamate and the solutions of choice were rapidly administered, and the theta tube was mounted on a high-speed piezo solution switcher (Automate Scientific, Berkeley, CA, USA).” for “CsOH.”

GluA1 = biological target: T3, GluA1 (Homo sapiens, UniProt P42261); experiment: Whole-cell patch-clamp recordings of homomeric GluA1 AMPAR in transfected HEK293T cells; conditions: GluA1; for Amplitude (glutamate plus TC compound): 10 mM glutamate + TC compound (12 µM optimal concentration), HEK293T, -60 mV, pH 7.4, 22 °C, mean ± SEM; for t deact: weighted tau of deactivation, 10 mM glutamate for 1 ms, glutamate alone 2.1±0.1; for t deact / t des: with TC compound; for t des: weighted tau of desensitization, 10 mM glutamate 500 ms, glutamate alone 2.5±0.1
T3 construct: expressed in transfected cells; host or cells: HEK293T
T3 sequence (P42261 19-906 isoform P42261-2 limits assumed, species assumed): as the sequence (P42261 19-906 isoform P42261-2 limits assumed) above
Protocol: as §1, §2, §3, §4, §5

GluA2/3 = biological target: T4, GluA2/3 (Homo sapiens, UniProt P42262+P42263); experiment: Whole-cell patch-clamp recordings of heteromeric GluA2/3 AMPAR in transfected HEK293T cells; conditions: for Amplitude (glutamate plus TC compound): 10 mM glutamate + TC compound (12 µM optimal concentration), HEK293T, -60 mV, pH 7.4, 22 °C, mean ± SEM; for Amplitude (glutamate plus TC compound) / Amplitude, applying glutamate alone after TC compound: n = 10; for Amplitude, applying glutamate alone after TC compound: 10 mM glutamate alone after 20 s wash following the TC compound; for A/AI: ratio of current with glutamate alone (A) to inhibited current after TC compound (AI); for t deact: weighted tau of deactivation, 10 mM glutamate for 1 ms, glutamate alone 2.6±0.3; for t deact / t des: with TC compound; for t des: weighted tau of desensitization, 10 mM glutamate 500 ms, glutamate alone 2.7±0.2
T4 construct: expressed in transfected cells; host or cells: HEK293T
T4 sequence (P42262 25-883 isoform P42262-2 limits assumed): as the sequence (P42262 25-883 isoform P42262-2 limits assumed, species assumed) above
T4 sequence (P42263 29-894 isoform P42263-2 limits assumed): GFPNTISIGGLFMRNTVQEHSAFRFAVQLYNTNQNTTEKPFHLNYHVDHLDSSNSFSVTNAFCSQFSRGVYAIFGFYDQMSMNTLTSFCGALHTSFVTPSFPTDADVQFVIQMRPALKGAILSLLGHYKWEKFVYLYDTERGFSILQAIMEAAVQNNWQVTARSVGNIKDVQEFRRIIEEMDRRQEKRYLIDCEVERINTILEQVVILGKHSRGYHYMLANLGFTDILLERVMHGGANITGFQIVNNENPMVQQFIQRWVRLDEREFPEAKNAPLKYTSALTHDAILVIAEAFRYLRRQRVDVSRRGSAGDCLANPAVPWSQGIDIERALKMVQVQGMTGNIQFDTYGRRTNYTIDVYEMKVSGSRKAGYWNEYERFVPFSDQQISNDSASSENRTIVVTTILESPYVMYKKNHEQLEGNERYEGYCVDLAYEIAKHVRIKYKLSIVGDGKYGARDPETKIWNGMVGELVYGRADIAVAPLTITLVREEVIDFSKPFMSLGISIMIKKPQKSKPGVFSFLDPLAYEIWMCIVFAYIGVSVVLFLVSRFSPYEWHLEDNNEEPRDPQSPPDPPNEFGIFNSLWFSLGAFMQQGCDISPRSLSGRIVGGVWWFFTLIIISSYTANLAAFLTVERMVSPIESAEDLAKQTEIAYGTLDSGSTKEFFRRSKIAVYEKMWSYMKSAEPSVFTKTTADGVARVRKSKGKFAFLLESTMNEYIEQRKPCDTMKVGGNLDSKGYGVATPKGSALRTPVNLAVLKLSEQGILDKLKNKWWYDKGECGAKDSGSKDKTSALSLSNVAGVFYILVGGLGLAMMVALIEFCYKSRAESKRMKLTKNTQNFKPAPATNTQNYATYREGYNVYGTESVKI
Protocol: as §1, §2, §3, §4, §5

[2] = Table S6, read-out: Log IC50 (converted)
[3] = ratio of current with glutamate alone (A) to inhibited current after TC compound (AI)
[4] = Table S6, peak current amplitudes, 8-10 cells, GraphPad Prism fit, read-out: IC50

SMILES | Amplitude (glutamate plus TC compound) (GluA2) [pA] | Amplitude, applying glutamate alone after TC compound (GluA2) [pA] | IC50 (GluA2; [2]) [µM] | IC50 (GluA2; read-out: IC50) [µM] | t deact (GluA2) [ms] | t des (GluA2) [ms] | Amplitude (glutamate plus TC compound) (GluA1/2) [pA] | Amplitude, applying glutamate alone after TC compound (GluA1/2) [pA] | IC50 (GluA1/2; [2]) [µM] | A/AI (GluA1/2) | t deact (GluA1/2) [ms] | t des (GluA1/2) [ms] | reduction in τw des [1] | increase in τw deact [1] | decrease in AMPAR subunit activity (inhibition of the whole-cell current) [1] | Amplitude (glutamate plus TC compound) (GluA1; n = 10) [pA] | IC50 (GluA1; [2]) [µM] | t deact (GluA1) [ms] | t des (GluA1) [ms] | Amplitude (glutamate plus TC compound) (GluA2/3) [pA] | further results
COc1ccc(-c2nc(C(=O)Nc3cc(OC)c(OC)c(OC)c3)cs2)cc1 [TC-2] | 212±20 | 1131±105 | 3.02 | 3.02 | 6.3 ± 0.2 | 0.9 ± 0.1 | 115±12 | 597±66 | 3.09 | 5.38±0.08 | 6.0 ± 0.5 | 3.7 ± 0.3 | 2 to 3 fold | ~2.5 fold | ~5.5 fold | 172±18 | 3.24 | 5.6 ± 0.3 | 1.1 ± 0.1 | 94±14 | A/AI (GluA2; [3]): 5.49±0.05; IC50 (GluA1/2; read-out: IC50): 3.1 µM; Amplitude, applying glutamate alone after TC compound (GluA1; 10 mM glutamate alone after 20 s wash following the TC compound, n = 10): 841±88 pA; IC50 (GluA1; read-out: IC50): 3.2 µM; Amplitude, applying glutamate alone after TC compound (GluA2/3): 484±68 pA; IC50 (GluA2/3; [2]): 3.02 µM; A/AI (GluA2/3): 5.33±0.23; IC50 (GluA2/3; read-out: IC50): 3.04 µM; t deact (GluA2/3): 5.9 ± 0.4 ms; t des (GluA2/3): 1.0 ± 0.2 ms
COc1ccc(-c2nc(C(=O)Nc3cc(OC)ccc3OC)cs2)cc1 [TC-5] | 250±35 | 1071±134 | 3.31 | 3.35 | 5.8 ± 0.3 | 1.2 ± 0.1 | 123±20 | 553±89 | 3.47 | 4.80±0.07 | 5.6 ± 0.4 | 3.8 ± 0.3 | roughly twofold | around 2 fold | approximately 5 fold | 177±33 | 3.55 | 5.5 ± 0.4 | 1.4 ± 0.1 | 99±22 | IC50 (GluA1/2; [4]): 3.49 µM; IC50 (GluA1; [4]): 3.51 µM; A/AI (GluA1; [3]): 4.67±0.10; Amplitude, applying glutamate alone after TC compound (GluA2/3): 443±96 pA; IC50 (GluA2/3; [4]): 3.42 µM; IC50 (GluA2/3; [2]): 3.39 µM; A/AI (GluA2/3): 4.79±0.20; t deact (GluA2/3): 5.7 ± 0.4 ms; t des (GluA2/3): 1.3 ± 0.2 ms
